Results: patent US8546137B2, “Inhibition of dendritic cell-driven regulatory T cell activation and potentiation of tumor antigen-specific T cell responses by interleukin-15 and MAP kinase inhibitor” (The Board of Trustees of the University of Arkansas, priority 2007, dated 2013)

Key:
[1] = system: peptide-loaded autologous LCL; test: 51Cr-release cytotoxicity assay, CD8+ T cells against peptide-loaded autologous LCL; type: cell-based, human
Description: (§1) Peripheral blood was drawn from healthy adult volunteer donors, following an IRB-approved protocol. PBMC were recovered by gradient centrifugation (Lymphoprep; Greiner Bio-One, Longwood, Fla.). For preparation of DC, PBMC were placed in 6 well plates (Costar, Cambridge, Mass.) at a concentration of 5×10^6/well in AIM-V medium. After incubation for 2-3 hours at 37° C., non-adherent cells were removed and the medium was replaced with AIM-V plus 800 U/ml GM-CSF and 500 U/ml IL-4. On days 3 and 5, half the medium was removed and replaced with AIM-V plus 800 U/ml GM-CSF and 500 U/ml IL-4. Maturation cytokines (1 μM/ml PGE2, 1000 U/ml TNFα, and 500 U/ml IL-1β) were added on day 5. Where indicated, IL-15 (100 ng/ml) was present throughout DC culture (i.e., from day 0, and supplemented on days 3 and 5). For stimulation of peptide-specific CD4^+ helper T cell and CD8^+ CTL responses, DC were loaded with 50 μg/ml of peptide on day 5 (at the time of addition of maturation cytokines) and the DC were harvested 2 days later. The DC were then washed once with AIM-V medium and used for T cell stimulation at a PBMC:DC ratio of 30:1. After 7 days, T cells were collected and restimulated with peptide-loaded DC. […]
(§2) Standard ^51Cr-release assays were performed as described (24). […] The percentage of target cell lysis was calculated as described (24).

[2] = system: peptide-loaded autologous LCL; test: 51Cr-release cytotoxicity assay, CD4+ T cells against peptide-loaded autologous LCL; type: cell-based, human
Description: as §1, §2

[3] = system: matriptase 170-204 peptide-specific, DC-activated CD4+ T cells; test: Foxp3 and GITR expression by flow cytometry, CD4+ T cells; type: cell-based, human
Description: (§3) Peripheral blood was drawn from healthy adult volunteer donors, following an IRB-approved protocol. PBMC were recovered by gradient centrifugation (Lymphoprep; Greiner Bio-One, Longwood, Fla.). For preparation of DC, PBMC were placed in 6 well plates (Costar, Cambridge, Mass.) at a concentration of 5×10^6/well in AIM-V medium. After incubation for 2-3 hours at 37° C., non-adherent cells were removed and the medium was replaced with AIM-V plus 800 U/ml GM-CSF and 500 U/ml IL-4. On days 3 and 5, half the medium was removed and replaced with AIM-V plus 800 U/ml GM-CSF and 500 U/ml IL-4. Maturation cytokines (1 μM/ml PGE2, 1000 U/ml TNFα, and 500 U/ml IL-1β) were added on day 5. Where indicated, IL-15 (100 ng/ml) was present throughout DC culture (i.e., from day 0, and supplemented on days 3 and 5). For stimulation of peptide-specific CD4^+ helper T cell and CD8^+ CTL responses, DC were loaded with 50 μg/ml of peptide on day 5 (at the time of addition of maturation cytokines) and the DC were harvested 2 days later. The DC were then washed once with AIM-V medium and used for T cell stimulation at a PBMC:DC ratio of 30:1. After 7 days, T cells were collected and restimulated with peptide-loaded DC. After the second stimulation, CD4^+ or CD8^+ T cells were recovered by positive selection with anti-CD4 or anti-CD8 magnetic beads (Dynabeads, Invitrogen), respectively, yielding populations of at least 95% purity. During the second and subsequent T cell passages (up to a maximum of six restimulations with peptide-loaded DC, at T cell:DC ratios of between 30:1 and 10:1), 20-100 U/ml IL-2 was added to the medium, and the cultures were periodically fed (every 2-3 days) by changing 50-70% of the medium and addition of fresh IL-2. Where indicated, T cell cultures were supplemented with 100 ng/ml IL-15, starting with the second passage.
Foxp3 expression was determined according to the manufacturer's staining protocol (eBioscience), using the provided fixation and permeabilization buffers. Intracellular cytokine expression was measured by flow cytometry after overnight co-culture of T cells with peptide-pulsed or control autologous LCL. T cells (1.5×10^6) were plated in 12 well Costar plates in 2 ml RPMI/10Hu. T cells were stimulated with phorbol myristyl acetate (50 ng/ml) and ionomycin (500 ng/ml) as a positive control. At the onset of co-culture, 10 μg/ml of Brefeldin A was added to block cytokine release. Cells were collected after overnight stimulation and fixed in 2% paraformaldehyde in PBS for 10 minutes at room temperature. The cells were washed once in PBS and again in 0.5% saponin and 1% BSA in PBS. […] Samples were analyzed with a FACSCalibur (Becton-Dickinson) and Cellquest or WinMDI software.

[4] = system: tumor antigen-specific CD4+ T cells; test: CCR4 and CXCR4 expression by CD4+ T cells stimulated with treated DC; type: cell-based, human; details: treatment of DC
Description: (§4) Treatment of DC with IL-15 and a p38 MAP kinase inhibitor enhances CD4^+ helper T cell TNFα expression in response to tumor antigen stimulation, and diminishes Treg foxp3 expression. DC were treated with IL-15 (100 ng/ml) and/or a p38 MAP kinase inhibitor (10 μM p38 MAP kinase inhibitor III, from Calbiochem, La Jolla, Calif.) throughout their culture (i.e., from day 0 through completion of DC maturation on day 7). DC were loaded with the hepsin 48-84 peptide antigen on day 5 (i.e., at the time of addition of maturation cytokines).

[5] = system: matriptase 170-204 peptide-specific CD8+ T cells; test: Treg assay: coculture of peptide-specific CD8+ T cells with autologous alloreactive CD4+ T cells (MLR, 3H-TdR); type: cell-based, human
Description: as §1, with “later.” for “later. The DC were then washed once with AIM-V medium and used for T cell stimulation at a PBMC:DC ratio of 30:1. After 7 days, T cells were collected and restimulated with peptide-loaded DC.”
DC-activated, peptide-specific T cells were tested for Treg activity in 3 day microwell cocultures with autologous alloreactive CD4^+ T cells at a 1:1 ratio. […] For all assays, proliferation of alloreactive CD4^+ T cells was determined by addition of 1 μCi/well ^3H-TdR for the last 16 hours of incubation. […]

[6] = system: tumor antigen-specific CD4+ T cells; test: PD-1 expression by CD4+ T cells stimulated with treated DC; type: cell-based, human; details: treatment of DC
Description: as §4

[7] = system: matriptase 170-204 peptide-specific, DC-activated CD8+ T cells; test: Foxp3 and GITR expression by flow cytometry, CD8+ T cells; type: cell-based, human
Description: as §1, with “DC. After the second stimulation, CD4^+ or CD8^+ T cells were recovered by positive selection with anti-CD4 or anti-CD8 magnetic beads (Dynabeads, Invitrogen), respectively, yielding populations of at least 95% purity.” for “DC.”
(§5) Foxp3 expression was determined according to the manufacturer's staining protocol (eBioscience), using the provided fixation and permeabilization buffers. Intracellular cytokine expression was measured by flow cytometry after overnight co-culture of T cells with peptide-pulsed or control autologous LCL. […] Samples were analyzed with a FACSCalibur (Becton-Dickinson) and Cellquest or WinMDI software.

[8] = system: hepsin 48-84 peptide-specific CD4+ T cells; test: TNFα expression by CD4+ T cells stimulated with treated DC; type: cell-based, human; details: DC treated throughout culture; IL-15 100 ng/ml, inhibitor 10 μM; relative to standard DC; T cells maintained with IL-2
Description: Foxp3 expression was determined according to the manufacturer's staining protocol (eBioscience), using the provided fixation and permeabilization buffers. Intracellular cytokine expression was measured by flow cytometry after overnight co-culture of T cells with peptide-pulsed or control autologous LCL. T cells (1.5×10^6) were plated in 12 well Costar plates in 2 ml RPMI/10Hu. T cells were stimulated with phorbol myristyl acetate (50 ng/ml) and ionomycin (500 ng/ml) as a positive control. At the onset of co-culture, 10 μg/ml of Brefeldin A was added to block cytokine release. Cells were collected after overnight stimulation and fixed in 2% paraformaldehyde in PBS for 10 minutes at room temperature. The cells were washed once in PBS and again in 0.5% saponin and 1% BSA in PBS. T cells were labeled with cytokine-specific PE or FITC-conjugated mAb for 30 minutes at room temperature. After staining, the cells were washed twice in 0.5% saponin and 1% BSA in PBS, once with 0.5% BSA in PBS, and fixed in 2% paraformaldehyde in PBS. Samples were analyzed with a FACSCalibur (Becton-Dickinson) and Cellquest or WinMDI software.
Treatment of DC with IL-15 and a p38 MAP kinase inhibitor enhances CD4^+ helper T cell TNFα expression in response to tumor antigen stimulation, and diminishes Treg foxp3 expression. […]

[9] = system: matriptase 170-204 peptide-specific CD4+ T cells; test: Treg assay: coculture of peptide-specific CD4+ T cells with autologous alloreactive CD4+ T cells (MLR, 3H-TdR); type: cell-based, human
Description: as §3
DC-activated, peptide-specific T cells were tested for Treg activity in 3 day microwell cocultures with autologous alloreactive CD4^+ T cells at a 1:1 ratio. The alloreactive CD4^+ T cells were stimulated with irradiated (7,500 cGy) allogeneic LCL at a 2:1 ratio. Transwell cocultures were conducted in 12-well Costar plates with 0.4 μm polycarbonate membrane inserts, at the same cell ratios as conventional microwell cocultures. Peptide-specific T cells were placed in the upper chamber, and alloreactive CD4^+ T cells plus irradiated allogeneic LCL were placed in the lower chamber. For all assays, proliferation of alloreactive CD4^+ T cells was determined by addition of 1 μCi/well ^3H-TdR for the last 16 hours of incubation. No exogenous cytokines were added to Treg coculture assays. Controls were included to correct for background proliferation of individual cell populations or spontaneous alloreactivity of peptide-specific T cells.

[10] = system: matriptase 170-204 peptide-specific CD4+ T cells; test: Intracellular Th1 cytokine (TNFα, IFNγ) expression after challenge with peptide-loaded autologous LCL; type: cell-based, human
Description: as §1, with “5).” for “5). For stimulation of peptide-specific CD4^+ helper T cell and CD8^+ CTL responses, DC were loaded with 50 μg/ml of peptide on day 5 (at the time of addition of maturation cytokines) and the DC were harvested 2 days later. The DC were then washed once with AIM-V medium and used for T cell stimulation at a PBMC:DC ratio of 30:1. After 7 days, T cells were collected and restimulated with peptide-loaded DC.”
as §5

[11] = system: CD25 preferentially expressed by CD4+ Treg; details: patients with renal cell carcinoma, combined with tumor RNA-transfected DC vaccination; cited from earlier work
[12] = IL-15 added to CD4+ T cell cultures activated with conventional DC
[13] = conventional DC or IL-15-treated DC, T cells maintained with IL-2 plus IL-15

## IL-15: interleukin-15, cytokine from R & D Systems, used at 100 ng/ml in DC and/or T cell culture
[1]; IL-15 treatment of DC or CD8+ T cells
  gain in lysis, CD8+ T cell cytotoxicity: lower than observed for CD4^+ T cell responses
[1]; combined treatment of both DC and CD8+ T cells with IL-15
  CD8+ T cell cytotoxicity against peptide-loaded LCL: strong synergistic increase
[2]; IL-15-treated DC followed by culture with IL-2 plus IL-15, additive
  CD4+ T cell lysis of peptide-loaded LCL: further gain in lysis
[2]; IL-15 treatment of DC or CD4+ T cells
  CD4+ T cell cytotoxicity: marked enhancement
[3]; [12]
  Foxp3 expression by CD4+ T cells: did not result in a significant change
  frequency of GITR+ CD4+ T cells (total): 8%
[3]; activated with IL-15-treated DC (100 ng/ml), maintained with IL-2, conventionally activated cells 33%
  Foxp3 expression, proportion of CD4+ T cells: 20%
[3]; activated with IL-15 treated DC and maintained with IL-2 plus IL-15
  frequency of Foxp3+ and GITR+ CD4+ T cells: markedly enhanced
[4]
  CD4+ T cell expression of CCR4: slightly inhibited
  CD4+ T cell expression of CXCR4: enhances
[5]; IL-15 treatment of DC alone
  CD8+ Treg activity: particularly effective in diminishing
[5]; IL-15 treatment of DC, of CD8+ T cells, or both
  CD8+ regulatory function: markedly diminished
[6]
  PD-1 expression by tumor antigen-specific CD4+ helper T cells: markedly reduces
[7]; activated with IL-15-treated DC, maintained with IL-2
  Foxp3 expression, proportion of CD8+ T cells: 37%
[7]; [13]
  GITR expression by CD8+ T cells: did not show increased GITR expression
  frequency of Foxp3+ CD8+ T cells: elevated frequencies
[8]
  CD4+ T cell TNFα expression upon tumor antigen stimulation: did not significantly increase
[9]; IL-15-treated DC, or IL-15 treatment of CD4+ T cells activated with conventional DC
  restoration of the mixed lymphocyte reaction (CD4+ Treg activity): significant restoration
[9]; T cells cultured with IL-15, or activated by DC cultured with IL-15, or both (bars B, C, D), conventional about 90%
  inhibition of the mixed lymphocyte reaction by peptide-specific CD4+ T cells (Treg activity): less than 60%
[9]; both DC and CD4+ T cells treated with IL-15
  restoration of the mixed lymphocyte reaction (CD4+ Treg activity): further enhancement of alloreactivity
[9]; peptide-specific CD4+ T cells irradiated before coculture, IL-15 on DC, T cells or both
  restoration of the mixed lymphocyte reaction (CD4+ Treg activity): almost total restoration of the MLR
[10]; combined IL-15 treatment of both DC and CD4+ T cells
  antigen-driven cytokine responses (TNFα, IFNγ) of CD4+ T cells: synergistic gain
[10]; treatment of DC with IL-15 or treatment of CD4+ T cells with IL-15
  frequency of CD4+ T cells expressing TNFα and IFNγ: small increment

## denileukin diftitox
[11]
  Treg in the peripheral blood: reduced numbers of Treg
  generation of tumor-specific T cell responses: enhanced generation of tumor-specific T cell responses

## p38 MAP kinase inhibitor III [reference compound]
[4]
  CD4+ T cell expression of CCR4: markedly enhanced
  CD4+ T cell expression of CXCR4: inhibited
[6]
  PD-1 expression by tumor antigen-specific CD4+ helper T cells: markedly reduces
[8]
  CD4+ T cell TNFα expression upon tumor antigen stimulation: did not significantly increase
